Source: ChEMBL document CHEMBL1127134, “Synthesis and antibacterial activity of (1R,5R,6R)-2-tert-butyl-6-(1-hydroxyethyl)oxapenem-3-carboxylic acid” (1993)
≈ marks a conversion by molar mass, not a printed value.

Tests used:
Staphylococcus aureus [1] = assay: Minimum inhibitory concentration required for the antibacterial activity against Staphylococcus aureus 13N Munchen; format: functional
Staphylococcus aureus [2] = assay: Minimum inhibitory concentration required for the antibacterial activity against Staphylococcus aureus 1756; format: functional; conditions: Staphylococcus aureus; read-out: MIC
Staphylococcus aureus [3] = assay: Minimum inhibitory concentration required for the antibacterial activity against Staphylococcus aureus 21b Belgium; format: functional
Staphylococcus aureus [4] = assay: Minimum inhibitory concentration required for the antibacterial activity against Staphylococcus aureus 25085; format: functional
Staphylococcus aureus [5] = assay: Minimum inhibitory concentration required for the antibacterial activity against Staphylococcus aureus 25463; format: functional
Staphylococcus aureus [6] = assay: Minimum inhibitory concentration required for the antibacterial activity against Staphylococcus aureus 25464; format: functional
Staphylococcus aureus [7] = assay: Minimum inhibitory concentration required for the antibacterial activity against Staphylococcus aureus 25470; format: functional
Staphylococcus aureus [8] = assay: Minimum inhibitory concentration required for the antibacterial activity against Staphylococcus aureus 25697; format: functional
Staphylococcus aureus [9] = assay: Minimum inhibitory concentration required for the antibacterial activity against Staphylococcus aureus 25768; format: functional
Staphylococcus aureus [10] = assay: Minimum inhibitory concentration required for the antibacterial activity against Staphylococcus aureus 41h Belgium; format: functional
Staphylococcus aureus [11] = assay: Minimum inhibitory concentration required for the antibacterial activity against Staphylococcus aureus 4978 Israel; format: functional
Staphylococcus aureus [12] = assay: Minimum inhibitory concentration required for the antibacterial activity against Staphylococcus aureus 77 Innsbruck; format: functional
Staphylococcus aureus [13] = assay: Minimum inhibitory concentration required for the antibacterial activity against Staphylococcus aureus 79B Innsbruck; format: functional
Staphylococcus aureus [14] = assay: Minimum inhibitory concentration required for the antibacterial activity against Staphylococcus aureus 86 Innsbruck; format: functional
Staphylococcus aureus [15] = assay: Minimum inhibitory concentration required for the antibacterial activity against Staphylococcus aureus 90 Innsbruck; format: functional
Staphylococcus aureus [16] = assay: Minimum inhibitory concentration required for the antibacterial activity against Staphylococcus aureus 17N Munchen; format: functional
Staphylococcus aureus [17] = assay: Minimum inhibitory concentration required for the antibacterial activity against Staphylococcus aureus 48N Munchen; format: functional
Bacteroides fragilis [18] = assay: Minimum inhibitory concentration required for the antibacterial activity against Bacillus fragilis 4891/91 Kr; format: functional
Bacteroides fragilis [19] = assay: Minimum inhibitory concentration required for the antibacterial activity against Bacillus fragilis DSM 2151; format: functional
Bacteroides fragilis [20] = assay: Minimum inhibitory concentration required for the antibacterial activity against Bacillus fragilis ES 25; format: functional
Bacteroides fragilis [21] = assay: Minimum inhibitory concentration required for the antibacterial activity against Bacillus fragilis GA I - 0558 Japan; format: functional
Bacteroides fragilis [22] = assay: Minimum inhibitory concentration required for the antibacterial activity against Bacillus fragilis Kr 1 TV; format: functional
Bacteroides fragilis [23] = assay: Minimum inhibitory concentration required for the antibacterial activity against Bacillus fragilis Kr II; format: functional
Bacteroides fragilis [24] = assay: Minimum inhibitory concentration required for the antibacterial activity against Bacillus fragilis L 1168 Italien; format: functional
[25] = system: Prevotella melaninogenica; assay: Minimum inhibitory concentration required for the antibacterial activity against Bacillus melaninogenicus Heidelberg; format: functional
[26] = system: Prevotella melaninogenica; assay: Minimum inhibitory concentration required for the antibacterial activity against Bacillus melaninogenicus Kr; format: functional
Bacteroides ovatus = assay: Minimum inhibitory concentration required for the antibacterial activity against Bacillus ovatus Heidelberg; format: functional, bacillus ovatu
[27] = system: Parabacteroides distasonis; assay: Minimum inhibitory concentration required for the antibacterial activity against Bacillus distasonis Heidelberg; format: functional
[28] = system: Parabacteroides distasonis; assay: Minimum inhibitory concentration required for the antibacterial activity against Bacillus distasonis Kr; format: functional
Bacteroides fragilis [29] = assay: Minimum inhibitory concentration required for the antibacterial activity against Bacillus fragilis 010848; format: functional
Bacteroides fragilis [30] = assay: Minimum inhibitory concentration required for the antibacterial activity against Bacillus fragilis 06688; format: functional
Bacteroides fragilis [31] = assay: Minimum inhibitory concentration required for the antibacterial activity against Bacillus fragilis 1560 I/82; format: functional
Bacteroides fragilis [32] = assay: Minimum inhibitory concentration required for the antibacterial activity against Bacillus fragilis 2034/35 Kr 43; format: functional
Bacteroides fragilis [33] = assay: Minimum inhibitory concentration required for the antibacterial activity against Bacillus fragilis 4661 Kr; format: functional
[34] = system: Bacteroides thetaiotaomicron; assay: Minimum inhibitory concentration required for the antibacterial activity against Bacillus thetaiotaomicron 235 Munchen; format: functional
[35] = system: Bacteroides thetaiotaomicron; assay: Minimum inhibitory concentration required for the antibacterial activity against Bacillus thetaiotaomicron DSM 2079; format: functional
Phocaeicola vulgatus = assay: Minimum inhibitory concentration required for the antibacterial activity against Bacillus valgatus Kr III; format: functional
Clostridium perfringens [36] = assay: Minimum inhibitory concentration required for the antibacterial activity against Clostridium perfringens 1024027; format: functional
Clostridium perfringens [37] = assay: Minimum inhibitory concentration required for the antibacterial activity against Clostridium perfringens 24071; format: functional
Clostridium perfringens [38] = assay: Minimum inhibitory concentration required for the antibacterial activity against Clostridium perfringens 24072; format: functional
Clostridium perfringens [39] = assay: Minimum inhibitory concentration required for the antibacterial activity against Clostridium perfringens DSM 756; format: functional
Clostridium butyricum = assay: Minimum inhibitory concentration required for the antibacterial activity against Clostridium butyricum; format: functional
Thomasclavelia ramosa = assay: Minimum inhibitory concentration required for the antibacterial activity against Clostridium ramosum DSM 1402; format: functional
Clostridium sporogenes = assay: Minimum inhibitory concentration required for the antibacterial activity against Clostridium sporogenes; format: functional
Fusobacterium nucleatum = assay: Minimum inhibitory concentration required for the antibacterial activity against Fusobacterium nucleatum DSM 20482; format: functional
[40] = system: Peptostreptococcus anaerobius; assay: Minimum inhibitory concentration required for the antibacterial activity against Peptostrept. anaer. Kr I; format: functional
[41] = system: Peptostreptococcus anaerobius; assay: Minimum inhibitory concentration required for the antibacterial activity against Peptostrept. anaer. Kr II; format: functional
[42] = system: Peptostreptococcus anaerobius; assay: Minimum inhibitory concentration required for the antibacterial activity against Peptostrept. anaer. 222 I/82; format: functional
[43] = system: Peptostreptococcus anaerobius; assay: Minimum inhibitory concentration required for the antibacterial activity against Peptostrept. anaer. DSM 20357; format: functional
[44] = system: Peptoniphilus asaccharolyticus; assay: Minimum inhibitory concentration required for the antibacterial activity against Peptococcus asacchar. DSM 20463; format: functional
Anaerococcus prevotii = assay: Minimum inhibitory concentration required for the antibacterial activity against Peptococcus prevotii DSM 20548; format: functional
[45] = system: Fusobacterium necrophorum; assay: Minimum inhibitory concentration required for the antibacterial activity against Sphaerophorus necrophorus Kr; format: functional
Clostridium septicum = assay: Minimum inhibitory concentration required for the antibacterial activity against Clostridium septicum; format: functional

## CC1(C)S[C@@H]2[C@H](NC(=O)[C@H](NC(=O)N3CCN(S(C)(=O)=O)C3=O)c3ccccc3)C(=O)N2[C@H]1C(=O)O [MEZLOCILLIN]
Staphylococcus aureus [1]
  MIC: 50 µg/mL (≈ 92.7 µM)
Staphylococcus aureus [2]
  MIC: 50 µg/mL (≈ 92.7 µM)
Staphylococcus aureus [3]
  MIC: 50 µg/mL (≈ 92.7 µM)
Staphylococcus aureus [4]
  MIC: 50 µg/mL (≈ 92.7 µM)
Staphylococcus aureus [5]
  MIC: 12.5 µg/mL (≈ 23.2 µM)
Staphylococcus aureus [6]
  MIC: 100 µg/mL (≈ 185 µM)
Staphylococcus aureus [7]
  MIC: 25 µg/mL (≈ 46.3 µM)
Staphylococcus aureus [8]
  MIC: 25 µg/mL (≈ 46.3 µM)
Staphylococcus aureus [9]
  MIC: 25 µg/mL (≈ 46.3 µM)
Staphylococcus aureus [10]
  MIC: 3.12 µg/mL (≈ 5.78 µM)
Staphylococcus aureus [11]
  MIC: 3.12 µg/mL (≈ 5.78 µM)
Staphylococcus aureus [12]
  MIC: 100 µg/mL (≈ 185 µM)
Staphylococcus aureus [13]
  MIC: 50 µg/mL (≈ 92.7 µM)
Staphylococcus aureus [14]
  MIC: 50 µg/mL (≈ 92.7 µM)
Staphylococcus aureus [15]
  MIC: > 100 µg/mL
Staphylococcus aureus [16]
  MIC: 12.5 µg/mL (≈ 23.2 µM)
Staphylococcus aureus [17]
  MIC: 12.5 µg/mL (≈ 23.2 µM)

## CC1(C)S[C@@H]2[C@H](NC(=O)[C@H](N)c3ccccc3)C(=O)N2[C@H]1C(=O)O [AMPICILLIN]
Staphylococcus aureus [1]
  MIC: 50 µg/mL (≈ 143 µM)
Staphylococcus aureus [2]
  MIC: 50 µg/mL (≈ 143 µM)
Staphylococcus aureus [3]
  MIC: > 100 µg/mL
Staphylococcus aureus [4]
  MIC: 50 µg/mL (≈ 143 µM)
Staphylococcus aureus [5]
  MIC: 50 µg/mL (≈ 143 µM)
Staphylococcus aureus [6]
  MIC: 50 µg/mL (≈ 143 µM)
Staphylococcus aureus [7]
  MIC: 50 µg/mL (≈ 143 µM)
Staphylococcus aureus [8]
  MIC: 25 µg/mL (≈ 71.5 µM)
Staphylococcus aureus [9]
  MIC: 50 µg/mL (≈ 143 µM)
Staphylococcus aureus [10]
  MIC: 50 µg/mL (≈ 143 µM)
Staphylococcus aureus [11]
  MIC: 1.56 µg/mL (≈ 4.46 µM)
Staphylococcus aureus [12]
  MIC: 50 µg/mL (≈ 143 µM)
Staphylococcus aureus [13]
  MIC: 50 µg/mL (≈ 143 µM)
Staphylococcus aureus [14]
  MIC: 50 µg/mL (≈ 143 µM)
Staphylococcus aureus [15]
  MIC: 50 µg/mL (≈ 143 µM)
Staphylococcus aureus [16]
  MIC: 25 µg/mL (≈ 71.5 µM)
Staphylococcus aureus [17]
  MIC: 50 µg/mL (≈ 143 µM)

## CCn1cc(C(=O)O)c(=O)c2cc(F)c(N3CCNCC3)cc21 [NORFLOXACIN]
Bacteroides fragilis [18]
  MIC: > 16 µg/mL
Bacteroides fragilis [19]
  MIC: > 16 µg/mL
Bacteroides fragilis [20]
  MIC: > 16 µg/mL
Bacteroides fragilis [21]
  MIC: > 16 µg/mL
Bacteroides fragilis [22]
  MIC: > 16 µg/mL
Bacteroides fragilis [23]
  MIC: > 16 µg/mL
Bacteroides fragilis [24]
  MIC: > 16 µg/mL
[25]
  MIC: > 16 µg/mL
[26]
  MIC: 16 µg/mL (≈ 50.1 µM)
Bacteroides ovatus
  MIC: > 16 µg/mL
[27]
  MIC: > 16 µg/mL
[28]
  MIC: > 16 µg/mL
Bacteroides fragilis [29]
  MIC: > 16 µg/mL
Bacteroides fragilis [30]
  MIC: > 16 µg/mL
Bacteroides fragilis [31]
  MIC: > 16 µg/mL
Bacteroides fragilis [32]
  MIC: > 16 µg/mL
Bacteroides fragilis [33]
  MIC: > 16 µg/mL
[34]
  MIC: > 16 µg/mL
[35]
  MIC: > 16 µg/mL
Phocaeicola vulgatus
  MIC: > 16 µg/mL
Clostridium perfringens [36]
  MIC: 2 µg/mL (≈ 6.26 µM)
Clostridium perfringens [37]
  MIC: 4 µg/mL (≈ 12.5 µM)
Clostridium perfringens [38]
  MIC: 4 µg/mL (≈ 12.5 µM)
Clostridium perfringens [39]
  MIC: > 16 µg/mL
Clostridium butyricum
  MIC: 16 µg/mL (≈ 50.1 µM)
Thomasclavelia ramosa
  MIC: > 16 µg/mL
Clostridium sporogenes
  MIC: 16 µg/mL (≈ 50.1 µM)
Fusobacterium nucleatum
  MIC: 16 µg/mL (≈ 50.1 µM)
[40]
  MIC: > 16 µg/mL
[41]
  MIC: 2 µg/mL (≈ 6.26 µM)
[42]
  MIC: > 16 µg/mL
[43]
  MIC: > 16 µg/mL
[44]
  MIC: 4 µg/mL (≈ 12.5 µM)
Anaerococcus prevotii
  MIC: > 16 µg/mL
[45]
  MIC: 2 µg/mL (≈ 6.26 µM)
Clostridium septicum
  MIC: 16 µg/mL (≈ 50.1 µM)

## Cc1onc(-c2ccccc2)c1C(=O)N[C@@H]1C(=O)N2[C@@H]1SC(C)(C)[C@@H]2C(=O)O [OXACILLIN]
Staphylococcus aureus [1]
  MIC: > 100 µg/mL
Staphylococcus aureus [2]
  MIC: 50 µg/mL (≈ 125 µM)
Staphylococcus aureus [3]
  MIC: > 100 µg/mL
Staphylococcus aureus [4]
  MIC: 3.12 µg/mL (≈ 7.77 µM)
Staphylococcus aureus [5]
  MIC: 1.56 µg/mL (≈ 3.89 µM)
Staphylococcus aureus [6]
  MIC: > 100 µg/mL
Staphylococcus aureus [7]
  MIC: 100 µg/mL (≈ 249 µM)
Staphylococcus aureus [8]
  MIC: 1.56 µg/mL (≈ 3.89 µM)
Staphylococcus aureus [9]
  MIC: 6.25 µg/mL (≈ 15.6 µM)
Staphylococcus aureus [10]
  MIC: > 100 µg/mL
Staphylococcus aureus [11]
  MIC: ≤ 0.78 µg/mL
Staphylococcus aureus [12]
  MIC: 100 µg/mL (≈ 249 µM)
Staphylococcus aureus [13]
  MIC: 50 µg/mL (≈ 125 µM)
Staphylococcus aureus [14]
  MIC: 100 µg/mL (≈ 249 µM)
Staphylococcus aureus [15]
  MIC: > 100 µg/mL
Staphylococcus aureus [16]
  MIC: 1.56 µg/mL (≈ 3.89 µM)
Staphylococcus aureus [17]
  MIC: ≤ 0.78 µg/mL
